Where a SMILES comes first, the peptide text is derived from it. Bridges are numbered along the chain shown (N, C = ends). Roman numbers before positions name the chains, in order.
Assays:
[1] = CD spectra, secondary structure analysis; type: physicochemical; details: 200 μg/ml peptide
Procedure: Circular dichroism (CD) spectra of the six peptides (Hst5, P113, HHP1, di-PH2, di-WP2 and di-18Hc) were measured with a J-715 spectropolarimeter (Jasco, Tokyo, Japan). Two hundred micrograms of each peptide was resuspended in 1 ml of 10 mM NaPB (pH 7.0) (i) without other additives, (ii) with 10% laminarin (LAM) or (iii) with 50% trifluoroethanol (TFE) (a known helix-inducing solvent). The spectra were measured at room temperature in a 1-mm-path-length quartz cell. The scanning speed was 10 nm/min (180 to 260 nm), and each spectrum was the average of five scans.
Fig 3 CD spectra of Hst5, P113, di-18Hc and hybrid peptides. This study was performed with one concentration (200 μg/ml) of each peptide in various buffers: 10 mM sodium phosphate buffer (Red line), 50% TFE in phosphate buffer (green line) and 20 mg of laminarin in phosphate buffer.

Candida cells = assay: ROS production (DCFH-DA fluorometric assay); type: cell-based, Candida albicans; details: 32 μg/ml peptide, 120 min, 10 μM DCFH-DA, ex 485 / em 530 nm
Procedure: The amount of ROS produced by Candida cells treated with peptides was measured by a fluorometric assay with DCFHDA as described earlier. Briefly, the cells were adjusted to an OD600 of 1 in 10 ml of NaPB and centrifuged at 5000 ×g for 10 min. The cell pellet was then resuspended in NaPB and treated with peptides alone or with ascorbic acid. After the addition of 10 μM 2`,7`dichlorofluorescein diacetate (DCFH-DA), the fluorescence intensity of the induced ROS production was recorded every 10 min at excitation and emission wavelengths of 485 nm and 530 nm, respectively, in a Perkin Elmer 2030 Reader (Victor X3).  Fig 7 The effect of peptides on ROS generation. Time-dependency of DCF fluorescence as a measure of ROS generation (A) and killing activity (B) were determined in Candida cells treated with peptides (32 μg/ml) or peptides + Ascorbic acid (200 μg/ml) by Perkin Elmer 2030 reader (VictorX 3) and colony count assay, respectively. The fluorescence obtained with the cells treated with 10 mM of H2O2 served as positive control and the cells without peptide served as negative control. The fluorescent intensity of DCF was recorded every 10 min for 120 min at excitation and emission wavelengths of 485 and 530 nm, respectively.

C. albicans strains = assay: Broth dilution assay (MIC), C. albicans strains; type: cell-based, Candida albicans; details: for killing activities against C. albicans strains in 150 mM salt: 150 mM NaCl; for decrease of killing activities in 150 mM salt: 150 mM NaCl versus no salt, C. albicans strains
Procedure: To determine the candidacidal activity of the peptides, we used Candida strains obtained from the Culture collection of antimicrobial resistant microbes at Seoul Women’s University in Korea. These included three Candida albicans (CCARM 14020, 14021, 14022), Candida guillermondi and Candida tropicalis. In addition, Candida albicans SC5413 was kindly provided by Dr Jeong-Yoon Kim at the Department of Microbiology & Molecular Biology, Chungnam University, Korea. Yeast were cultured overnight at 30°C in 10 ml of yeast extract-peptone-dextrose (YPD) broth (Qbiogene), then diluted in 10 ml of YPD broth to OD600 = 0.2 and grown for an additional 4 h with shaking at 30°C until OD600 = 0.8 in order to obtain mid-log phase cultures. The peptides (Hst 5, P113, HHP1, HHP2, PH1, PH2, di-PH1, di-PH2, WP1, di-WP2, di-15Hc and di-18Hc) in this study were synthesized by using standard solid-phase synthesis protocols and were purified by reversed-phase high-performance liquid chromatography at Anygen Inc. (Korea). FITC-labeled peptides (F-Hst5, F-P113, F-HHP1, F-di-PH2, F-di-WP2 and F-di-18Hc) were also synthesized by 6-aminohexnoic acid linker at Anygen (Korea) for confocal experiments.
The candidacidal activities of the peptides were tested by using standard microdilution plate assays, radial diffusion assays and broth dilution assay slightly modified from the procedure recommended by the National Committee for Clinical Laboratory Standards. For the candidacidal assays, C. albicans cells were grown in YPD medium and washed twice with 10 mM sodium phosphate buffer (NaPB; Na2HPO4, NaH2PO4, pH 7.4). The cells (1 x 10^6) were then mixed with different concentrations of peptides and incubated at 30°C with constant shaking for 60 min. For energy depletion experiments, cells were pre-incubated with 10 mM NaPB containing 5 mM NaN3 at 30°C for 60 min before the addition of peptides. The cell suspensions were diluted in 10 mM NaPB and aliquots of 500 cells were spread onto YPD agar plates then incubated for 24 h at 30°C to visualize the surviving colonies. Cell survival was expressed as a percentage of that for the control, and the loss of viability was calculated as [1 x (number of colonies from peptide-treated cells/number of colonies from control cells)] x 100. Candidacidal assays were performed in triplicate. For the radial diffusion assay, C. albicans cells were grown in YPD medium overnight and washed twice with 10 mM NaPB. Washed yeast-phase C. albicans cells (1 x 10^6 CFU) were trapped in thin underlay gels containing 9 mM sodium phosphate, 1 mM sodium citrate buffer, 1% (wt/vol) agarose (A6013; Sigma), and 0.3 mg of Sabouraud dextrose broth (Difco)/ml. After incubation at 37°C for 3 h, a 10 ml overlay gel of 1% agarose and 6% Sabouraud dextrose broth was poured on the underlay gel and then the plates were incubated overnight at 37°C. The clear-zone diameters were measured to the nearest 0.1 mm and graphed against the peptide concentration. Zone diameters were expressed in units (0.1 mm = 1 unit). For the broth dilution assay, the Candida strains were cultured in LYM broth for 18 h at 30°C. The numbers of yeasts were counted using a hemocytometer. Stock peptide solutions were prepared to a concentration of 320 μg/ml in distilled water, and were then serially diluted twofold, to 5 μg/ml. […] The antifungal activities were evaluated after 24 h of incubation at 30°C by the observation of visible turbidity the wells. […]

[2] = solvent 10mM NaPB (pH 7.0), room temperature, average of five scans

Secondary structure (%) Beta ([1]; solvent 10mM NaPB (pH 7.0)) | Secondary structure (%) Random ([1]; solvent 10mM NaPB (pH 7.0)) | Secondary structure (%) Turn ([1]; solvent 10mM NaPB (pH 7.0)) | Secondary structure (%) Helix [1, 2] | Secondary structure (%) Beta ([1]; solvent 50% TFE in 10 mM NaPB) | Secondary structure (%) Helix ([1]; solvent 50% TFE in 10 mM NaPB) | Secondary structure (%) Random ([1]; solvent 50% TFE in 10 mM NaPB) | Secondary structure (%) Turn ([1]; solvent 50% TFE in 10 mM NaPB) | SMILES | DCF fluorescence intensity (ROS generation) (Candida cells) | killing activities against C. albicans strains in 150 mM salt (C. albicans strains) | decrease of killing activities in 150 mM salt (C. albicans strains)
19.3% | 74.5% | 6.2% | 0% | 7.3% | 76.2% | 0.0% | 16.4% | C[C@H](NC(=O)[C@H](Cc1c[nH]cn1)NC(=O)[C@H](CO)NC(=O)[C@@H](N)CC(=O)O)C(=O)N[C@@H](CCCCN)C(=O)N[C@@H](CCCNC(=N)N)C(=O)N[C@@H](Cc1c[nH]cn1)C(=O)N[C@@H](Cc1c[nH]cn1)C(=O)NCC(=O)N[C@@H](Cc1ccc(O)cc1)C(=O)N[C@@H](CCCCN)C(=O)N[C@@H](CCCNC(=N)N)C(=O)N[C@@H](CCCCN)C(=O)N[C@@H](Cc1ccccc1)C(=O)N[C@@H](Cc1c[nH]cn1)C(=O)N[C@@H](CCC(=O)O)C(=O)N[C@@H](CCCCN)C(=O)N[C@@H](Cc1c[nH]cn1)C(=O)N[C@@H](Cc1c[nH]cn1)C(=O)N[C@@H](CO)C(=O)N[C@@H](Cc1c[nH]cn1)C(=O)N[C@@H](CCCNC(=N)N)C(=O)NCC(=O)N[C@@H](Cc1ccc(O)cc1)C(=O)O [Hst 5, Histatin 5] | constant increase in fluorescence intensity | abolished | –
29.2% | 61.5% | 5.5% | 3.8% | 10.4% | 47.0% | 28.4% | 14.2% | CC(C)C[C@H](NC(=O)CNC(=O)[C@H](Cc1c[nH]cn1)NC(=O)[C@H](Cc1c[nH]cn1)NC(=O)[C@H](CC(C)C)NC(=O)[C@H](CC(C)C)NC(=O)[C@H](C)NC(=O)[C@H](CC(N)=O)NC(=O)[C@H](CC(C)C)NC(=O)[C@@H](N)Cc1c[nH]c2ccccc12)C(=O)N[C@@H](CC(N)=O)C(=O)N[C@@H](CSSC[C@H](NC(=O)[C@H](CC(N)=O)NC(=O)[C@H](CC(C)C)NC(=O)CNC(=O)[C@H](Cc1c[nH]cn1)NC(=O)[C@H](Cc1c[nH]cn1)NC(=O)[C@H](CC(C)C)NC(=O)[C@H](CC(C)C)NC(=O)[C@H](C)NC(=O)[C@H](CC(N)=O)NC(=O)[C@H](CC(C)C)NC(=O)[C@@H](N)Cc1c[nH]c2ccccc12)C(=O)N[C@@H](C)C(=O)N[C@@H](CCCCN)C(=O)NCC(=O)N[C@H](C(=O)N[C@@H](CC(C)C)C(=O)N[C@@H](C)C(N)=O)C(C)C)C(=O)N[C@@H](C)C(=O)N[C@@H](CCCCN)C(=O)NCC(=O)N[C@H](C(=O)N[C@@H](CC(C)C)C(=O)N[C@@H](C)C(N)=O)C(C)C [di-18Hc, reference compound] (I: H-WLNALLHHGLNCAKGVLA-NH2 / II: H-WLNALLHHGLNCAKGVLA-NH2; disulfide I:12-II:12 (inferred); N-terminus assumed) | little fluorescence | – | 4-8 fold
29.2% | 70.8% | 0.0% | 0.0% | 32.9% | 10.1% | 51.8% | 5.2% | CC(C)C[C@H](NC(=O)CNC(=O)[C@H](Cc1c[nH]cn1)NC(=O)[C@H](Cc1c[nH]cn1)NC(=O)[C@H](CCCNC(=N)N)NC(=O)[C@H](CCCCN)NC(=O)[C@H](C)N)C(=O)N[C@@H](CC(N)=O)C(=O)N[C@@H](CSSC[C@H](NC(=O)[C@H](CC(N)=O)NC(=O)[C@H](CC(C)C)NC(=O)CNC(=O)[C@H](Cc1c[nH]cn1)NC(=O)[C@H](Cc1c[nH]cn1)NC(=O)[C@H](CCCNC(=N)N)NC(=O)[C@H](CCCCN)NC(=O)[C@H](C)N)C(=O)N[C@@H](C)C(=O)N[C@@H](CCCCN)C(=O)N[C@@H](Cc1ccccc1)C(=O)N[C@@H](Cc1c[nH]cn1)C(N)=O)C(=O)N[C@@H](C)C(=O)N[C@@H](CCCCN)C(=O)N[C@@H](Cc1ccccc1)C(=O)N[C@@H](Cc1c[nH]cn1)C(N)=O [di-PH2] (I: H-AKRHHGLNCAKFH-NH2 / II: H-AKRHHGLNCAKFH-NH2; disulfide I:9-II:9 (inferred); N-terminus assumed) | constant increase in fluorescence intensity | abolished | –
22.0% | 63.2% | 14.8% | 0.0% | 25.7% | 7.8% | 52.5% | 13.9% | CC(C)C[C@H](NC(=O)[C@@H](N)Cc1c[nH]c2ccccc12)C(=O)N[C@@H](CC(N)=O)C(=O)N[C@@H](C)C(=O)N[C@@H](CCCCN)C(=O)N[C@@H](CCCNC(=N)N)C(=O)N[C@@H](Cc1c[nH]cn1)C(=O)N[C@@H](Cc1c[nH]cn1)C(=O)NCC(=O)N[C@@H](Cc1ccc(O)cc1)C(=O)N[C@@H](CCCCN)C(=O)N[C@@H](CSSC[C@H](NC(=O)[C@H](CCCCN)NC(=O)[C@H](Cc1ccc(O)cc1)NC(=O)CNC(=O)[C@H](Cc1c[nH]cn1)NC(=O)[C@H](Cc1c[nH]cn1)NC(=O)[C@H](CCCNC(=N)N)NC(=O)[C@H](CCCCN)NC(=O)[C@H](C)NC(=O)[C@H](CC(N)=O)NC(=O)[C@H](CC(C)C)NC(=O)[C@@H](N)Cc1c[nH]c2ccccc12)C(=O)N[C@@H](CCCCN)C(=O)N[C@@H](Cc1ccccc1)C(=O)N[C@@H](Cc1c[nH]cn1)C(N)=O)C(=O)N[C@@H](CCCCN)C(=O)N[C@@H](Cc1ccccc1)C(=O)N[C@@H](Cc1c[nH]cn1)C(N)=O [di-WP2] (I: H-WLNAKRHHGYKCKFH-NH2 / II: H-WLNAKRHHGYKCKFH-NH2; disulfide I:12-II:12 (inferred); N-terminus assumed) | little fluorescence | – | 4-8 fold

Source: publication PMC4769088, “Antifungal Activity and Action Mechanism of Histatin 5-Halocidin Hybrid Peptides against Candida ssp” (PLoS ONE, 2016)
